Experimental data reported in US20180264094A1, “PERSONALISED IMMUNOGENIC PEPTIDE IDENTIFICATION PLATFORM” (priority 2017, published 2018).
Entries after “also recorded” stand apart in the source; their conditions may differ. Where no end group is shown, it is not given here.

Columns and labels:
[1] = tested on: metastatic ovarian adenocarcinoma; test: MRI of tumor lesions of patient treated with PIT vaccine (Table 28); format: in vivo, human; conditions: before PIT vaccine
Source text: • Disease was confined primarily to liver and lymph nodes. The use of MRI limits detection of lung (pulmonary) metastasis • May 2016-January 2017: Olaparib treatment • Dec. 25, 2016 (before PIT vaccine treatment) There was dramatic reduction in tumor burden with confirmation of response obtained at FU2 • January-March 2017—TOPO protocol (topoisomerase) • Apr. […] 21 2017 START PIT • Jul. […] 26, 2017—CBP+Gem+Avastin • Sep.

T cell responses = conditions: percentage of study subjects with positive T cell responses measured in the clinical trials; cited from earlier work
[2] = in vivo; cited from earlier work
[3] = tested on: Vaccine antigen specific CTL responses; conditions: published immune response rate (CTL) of the clinical study population; cited from earlier work
[4] = published Disease Control Rate (ORR where no DCR data), RECIST; cited from earlier work
[5] = tested on: glioblastoma multiforme (GBM); conditions: cited from earlier work
EGFRvIII = conditions: cited from earlier work
[6] = cited from earlier work

CC[C@@]1(O)C(=O)OCc2c1cc1n(c2=O)Cc2cc3c(CN(C)C)c(O)ccc3nc2-1 [Hycamtin]
Lesion response (% Δ from BL) ([1]; SUM, FU3, after TOPO protocol): −68.9% | Lesion response (% Δ from BL) ([1]; TL1, FU3 (Apr. 6, 2017), after TOPO protocol): −44.8% | Lesion response (% Δ from BL) ([1]; TL2, FU3, after TOPO protocol): −47.1% | Lesion response (% Δ from BL) ([1]; TL3, FU3, after TOPO protocol): −62.0% | Lesion response (% Δ from BL) ([1]; TL4, FU3, after TOPO protocol): −100.0%

O=C(c1cc(Cc2n[nH]c(=O)c3ccccc23)ccc1F)N1CCN(C(=O)C2CC2)CC1 [Olaparib]
Lesion response (% Δ from BL) ([1]; SUM of target lesions, FU1, during Olaparib treatment): −66.3% | Lesion response (% Δ from BL) ([1]; SUM, FU2, Olaparib treatment): −76.0% | Lesion response (% Δ from BL) ([1]; TL1, FU1, patient, MRI, during Olaparib treatment): −56.1% | Lesion response (% Δ from BL) ([1]; TL1, FU2 (Dec. 25, 2016), Olaparib treatment): −44.4% | Lesion response (% Δ from BL) ([1]; TL2, FU1, during Olaparib treatment): −100.0% | Lesion response (% Δ from BL) ([1]; TL2, FU2, Olaparib treatment): −100.0% | Lesion response (% Δ from BL) ([1]; TL3, FU1, during Olaparib treatment): −59.4% | Lesion response (% Δ from BL) ([1]; TL3, FU2, Olaparib treatment): −62.3% | Lesion response (% Δ from BL) ([1]; TL4, FU1, during Olaparib treatment): −65.8% | Lesion response (% Δ from BL) ([1]; TL4, FU2, Olaparib treatment): −100.0%

ALDQCKTSCALMQQHYDQTSCFSSP (additional peptide 7) [25 mer peptide vaccine, source antigen ITGB8]
Response rate (Clinical Trials) (T cell responses): 28%

Abciximab
ADA-related adverse event [2]: anaphylaxis

Adalimumab
ADA-related adverse event [2]: anti-drug antibodies and treatment failure

Basiliximab
ADA-related adverse event [2]: anaphylaxis

Epoetin
ADA-related adverse event [2]: Antibody-mediated pure red cell aplasia

Erythropoietin
ADA-related adverse event [2]: pure red cell aplasia

Etanercept
ADA-related adverse event [2]: no apparent effect on safety

FPPKDDHTLKFLYDDNQRPYPP (additional peptide 4) [22 mer peptide vaccine, source antigen TOP2A]
Response rate (Clinical Trials) (T cell responses): 11%

Factor-IX
ADA-related adverse event [2]: anaphylaxis

GRGSTTTNYLLDRDDYRNTSD (additional peptide 2) [21 mer peptide vaccine, source antigen ADA17]
Response rate (Clinical Trials) (T cell responses): 11%

ImMucin: anti-MUC1 signal peptide vaccine, ref 15; likely the 21 mer MTPGTQSPFFLLLLLTVLTVV
Clinical Trial Response Rate [3]: 90% | DCR [4]: 73%

Infliximab
ADA-related adverse event [2]: anaphylaxis

Ipilimumab
Clinical Trial Response Rate [3]: 72% | DCR [4]: 60%

LEEKKGNYVVTDHC (also: conjugated to KLH) [Rindopepimut, 13-amino-acid peptide vaccine spanning the EGFRvIII mutation with additional C-terminal cysteine]
HR (overall survival) ([5]; Rindopepimut group versus control group, 95% CI 0.79-1.30): 1.01 | median overall survival ([5]; phase III, Rindopepimut and temozolomide (n=371)): 20.1 months | Responders (EGFRvIII; Clinical trial (Phase II), cellular immune response by DTH reaction test, EGFRvIII-expressing GBM patients): 3/18 | Response rate (EGFRvIII; Clinical trial (Phase II), cellular immune response by DTH reaction test): 16.6% | patients developing cellular immune response assessed by DTH reaction test (EGFRvIII; phase II, peptide conjugated to KLH, intradermal, newly diagnosed EGFRvIII-expressing GBM): 3 out of 18

LKKGAADGGKLDGNAKLNRSLK (additional peptide 3) [22 mer peptide vaccine, source antigen BAP31]
Response rate (Clinical Trials) (T cell responses): 11%

MMNLMQPKTQQTYTYD (additional peptide 1) [16 mer peptide vaccine, source antigen JUP]
Response rate (Clinical Trials) (T cell responses): 0%

MTPGTQSPFFLLLLLTVLTVV (additional peptide 10)
Response rate (Clinical Trials) (T cell responses): 90%

OKT3
ADA-related adverse event [2]: anaphylaxis

Pegloticase
ADA-related adverse event [2]: anti-dug antibody, treatment failure

QRPPFSQLHRFLADALNT (additional peptide 6) [18 mer peptide vaccine, source antigen DDR1]
Response rate (Clinical Trials) (T cell responses): 17%

RYRKPDYTLDDGHGLLRFKST (additional peptide 5) [21 mer peptide vaccine, source antigen Abl-2]
Response rate (Clinical Trials) (T cell responses): 17%

SSKALQRPV (additional peptide 11) [9 mer peptide vaccine, source antigen Bcr-Abl]
Response rate (Clinical Trials) (T cell responses): 0%

Thrombopoietin [TPO]
ADA-related adverse event [2]: thrombocitopenia | most immunogenic region by State of Art class II HLA restricted epitope identification ([6]; EpiVax/Genentech, US20040209324 A1): C-terminal end of TPO | immunotoxic region, experimental proof in published literature ([6]; in vivo): N-terminal end of TPO | immunogenicity / anti-drug antibodies (ADA) ([6]; patients treated with TPO drug): highly immunogenic protein drug causing toxicity in many patients; also recorded: Most individuals treated with TPO drug made anti-drug antibodies (ADA)

Ustekinumab
ADA-related adverse event [2]: anti-ustekinumab antibodies, affected

YLEPGPVTA
Response rate (Clinical Trials) (T cell responses): 28%

recombinant factor VIII
ADA-related adverse event [2]: anaphylaxis
